For data set [1] the following is noted: mice, single intravenous dose of 12.5 μg/kg; cited from earlier work.
A further data set has as its system TOV-21G cells. The experiment in a line: Clonogenic assay. Format: cell-based. To be noted: Homo sapiens, TOV21G, 72 h exposure to free maytansine. The method, then: (§1) The cytotoxicity of maytansinoid conjugated muDS6 antibody was examined using 2 different assay formats in various DS6 positive cell lines. Clonogenic assays were conducted where cells (1000-2500 cells/well) were plated on 6-well plates in 2 ml of conjugate diluted in culture media. […] The wells were washed with PBS and the colonies were stained with a 1% w/v crystal violet/10% v/v formaldehyde/PBS solution. Unbound stain was then washed thoroughly from the wells with distilled water, and the plates were allowed to dry. The colonies were counted using a Leica StereoZoom 4 dissecting microscope.
(§2) Plating efficiency (PE) was calculated as the number of colonies/number of cells plated. Surviving fraction was calculated as PE of treated cells/PE of non-treated cells. The IC50 concentration was determined by graphing the surviving fraction of cells vs. the molar concentration of the conjugate.

The next data set concerns BT-483 cells. The experiment in a line: Clonogenic assay. The data set is classed as cell-based. To be noted: Homo sapiens, 72 h exposure to free maytansine. As to the method:
as §1, §2

In the next data set the test system is HPAC cells. As to the kind of experiment: Clonogenic assay. Format: cell-based. To be noted: Homo sapiens, 72 h exposure to free maytansine. The method, then: as §1, §2
The next data set deals with HPAF-II cells. As to the kind of experiment: Clonogenic assay. To be noted: Homo sapiens, 72 h exposure to free maytansine. The data set is classed as cell-based. The method, then: as §1, §2
The subject of the next data set is ZR-75-1 cells. As to the kind of experiment: Clonogenic assay. The data set is classed as cell-based. To be noted: Homo sapiens, 72 h exposure to free maytansine. As to the method:
as §1, §2

The subject of another data set is Caov-3 cells. The experiment in a line: Clonogenic assay. The data set is classed as cell-based. To be noted: Homo sapiens, 72 h exposure to free maytansine. As to the method:
as §1, §2

Data set [2] has as its system WISH cells. The experiment in a line: Clonogenic assay. The data set is classed as cell-based. To be noted: Homo sapiens, 72 h exposure to free maytansine. As to the method: as §1, §2
Data set [3] has as its system KB cells. As to the kind of experiment: Clonogenic assay. The data set is classed as cell-based. To be noted: Homo sapiens, 72 h exposure to free maytansine. The method, then:
as §1, §2

For a further data set, the system named is Caov-4 cells. The experiment in a line: Clonogenic assay. To be noted: Homo sapiens, 72 h exposure to free maytansine. The data set is classed as cell-based. As to the method:
as §1, §2

The test system of another data set is BT-20 cells. As to the kind of experiment: Clonogenic assay. The data set is classed as cell-based. To be noted: Homo sapiens, 72 h exposure to free maytansine. The method, then: as §1, §2
The subject of another data set is Hs766T cells. As to the kind of experiment: Clonogenic assay. The data set is classed as cell-based. To be noted: Homo sapiens, 72 h exposure to free maytansine. As to the method:
as §1, §2

Another data set has as its system T-47D cells. The experiment in a line: Clonogenic assay. The data set is classed as cell-based. To be noted: Homo sapiens, T47D, 72 h exposure to free maytansine. As to the method:
as §1, §2

The subject of a further data set is OVCAR5 cells. As to the kind of experiment: Clonogenic assay. The data set is classed as cell-based, human. As to the method:
as §1, §2

Data set [4] has as its system HeLa cells. The experiment in a line: Clonogenic assay. The data set is classed as cell-based, human. The method, then:
as §1, §2

The subject of data set [5] is HeLa cells. The experiment in a line: Flow cytometry binding assay. To be noted: HeLa cells, versus muDS6 antibody. Set-up: species or system human. The method, then:
(§3) Cells were maintained in a 37° C., 5% CO2 humidified incubator.
(§4) Cells ([…]) were incubated, on ice for 3-4 h, with serially diluted concentrations of the DS6 antibody prepared in FACS buffer (2% goat serum, RPMI) into 96-well plates. The cells were spun down in a table top centrifuge at 1500 rpm for 5 min at 4° C. After removing the media, the wells were then refilled with 150 μl of FACS buffer. The wash step was then repeated. FITC-labeled goat anti-mouse IgG (Jackson Immunoresearch) was diluted 1:100 to FACS buffer and incubated with the cells for 1 h on ice. The plate was covered in foil to prevent photobleaching of the signal. After two washes, the cells were fixed with 1% formaldehyde and analyzed on a flow cytometer.
(A flow cytometer gives signals particle by particle.)

Data set [6] relates to WISH cells. The experiment in a line: MTT cell viability assay. The data set is classed as cell-based, human. As to the method: In the MTT assay, cells were seeded in 96-well plates at a density of 1000-5000 cells/well. The cells were plated with serial dilutions of either naked muDS6 or muDS6-DM1 immunoconjugate in 200 μl of culture media. The samples were run in triplicate. The cells and antibody/conjugate mixtures were then incubated for 2-7 d, at which time cell viability was assessed by an MTT ([3(4,5-dimethylthiazol-2-yl)-2,5-diphenyl tetrazolium bromide)] assay. MTT (50 μg/well) was added to the culture supernatant and allowed to incubate for 3-4 h at 37° C. The media was removed and the MTT formazan was solubilized in DMSO (175 μl/well). The absorbance at 540-545 nm was measured. […] The wells with the highest concentrations of conjugate contained no viable cells as compared to naked antibody which had no effect (FIGS. 21 and 24).
(§5) The binding was conducted essentially as described for FIG. 20 except that KB cells were used rather than CaOv-3 cells.
A general note: Formazan colour is commonly taken as a measure of viable cells.

In another data set the test system is HPAC xenografts. The experiment in a line: HPAC pancreatic cancer model with humanized DS6 conjugate. Format: in vivo, mice. As to the method: The in vivo activity of huDS6v1.01-DM4 was tested on the HPAC pancreatic model. HPAC cells were inoculated on day 0, and immunoconjugate treatments were given on day 13. PBS control animals were euthanized once tumor volumes exceeded 1000 mm^3. The conjugate was given at a dose of either 200 μg/kg or 600 μg/kg DM4, corresponding to an antibody concentration 15 mg/kg and 45 mg/kg, respectively. Tumor volume (FIG. 30A) and body weight (FIG. 30B) of the mice were monitored during the course of the study.

In data set [7] the test system is KB cells. The experiment in a line: Flow cytometry binding assay. Set-up: species or system human. To be noted: KB cells, versus unmodified antibody. As to the method:
as §3, §4
The affinity of the purified huIgG was compared with muDS6 by flow cytometry. In the first set of experiments direct binding to a CA6-expressing cell line, KB, was measured. […] To confirm that the huDS6 versions retain the affinity of muDS6, competitive binding experiments were conducted. The advantage of this format is that the same detection system is used for both murine and human antibodies; that is biotin-muDS6/streptavidin-DTAF.
as §5

The conditions of data set [8]: clinical trial patients; cited from earlier work.

Entries after “also recorded” stand apart in the source; their conditions may differ.

We go through 6 molecules from patent US8987424B2, “CA6 antigen-specific cytotoxic conjugate and methods of using the same” (ImmunoGen, Inc., priority 2003, dated 2015).

As to `COc1c(O)c2c(c3cc(C(=O)N4CCc5c4c(O)c(OC)c4[nH]c(C(=O)N6CC7CC78C6=CC(=O)c6[nH]cc(C)c68)cc54)[nH]c13)CCN2C(N)=O` (centres unmarked) [CC-1065], the “day of mortality from delayed hepatotoxicity” value in [1] was 50 days.

In the case of `COc1cc2cc(c1Cl)N(C)C(=O)C[C@H](OC(=O)[C@H](C)N(C)C(C)=O)[C@]1(C)O[C@H]1[C@H](C)[C@@H]1C[C@@](O)(NC(=O)O1)[C@H](OC)/C=C/C=C(\C)C2` [Maytansine, maytansine], the IC50 (as a rule, the concentration at which inhibition is half-maximal) amounted to 0.048 nM in the data set with TOV-21G cells; 0.15 nM with BT-483 cells; 0.055 nM in the data set with HPAC cells; 0.6 nM in the data set on HPAF-II cells; 0.1 nM with ZR-75-1 cells; 0.032 nM with Caov-3 cells. Further, the IC50 with WISH cells [2] is 0.09 nM; in the data set on KB cells [3], 0.03 nM; in the data set with Caov-4 cells, 0.6 nM; with BT-20 cells, 0.35 nM; in the data set on Hs766T cells, above 3 nM; in the data set with T-47D cells it was 0.12 nM. The IC50 in the data set on OVCAR5 cells (Homo sapiens, OVCAR-5, OVCAR5, 72 h exposure to free maytansine) turned out to be 0.32 nM; in the data set with HeLa cells [4] (Homo sapiens, HeLa, 72 h exposure to free maytansine), 0.1 nM. For the same molecule, the “fold less maytansine sensitive” value in the data set with OVCAR5 cells (OVCAR5 versus TOV-21G and HPAC) is recorded as 2-7 fold; in the data set on HeLa cells [4] (HeLa versus TOV-21G and HPAC), 2-7 fold.

B1: DS6-MM1-202 (conjugate)
VH: QAYLQQSGAELVRSGASVKMSCKASGYTFTSYNMHWVKQTPGQGLEWIGYIYPGNGATNYNQKFKGKATLTADPSSSTAYMQISSLTSEDSAVYFCARGDSVPFAYWGQGTLVTVSA
VL: QIVLTQSPAIMSASPGEKVTITCSAHSSVSFMHWFQQKPGTSPKLWIYSTSSLASGVPARFGGSGSGTSYSLTISRMEAEDAATYYCQQRSSFPLTFGAGTKLELKR
For B1, the “effect of conjugation on binding activity” value in the data set with HeLa cells [5] was “retains binding activity”.

B2: huDS6v1.01: humanized (resurfaced) DS6 version 1.01, heavy chain with the human 28E4 T73 (antibody, V domains shown)
VH: QAQLVQSGAEVVKPGASVKMSCKASGYTFTSYNMHWVKQTPGQGLEWIGYIYPGNGATNYNQKFQGKATLTADTSSSTAYMQISSLTSEDSAVYFCARGDSVPFAYWGQGTLVTVSA
VL: EIVLTQSPATMSASPGERVTITCSAHSSVSFMHWFQQKPGTSPKLWIYSTSSLASGVPARFGGSGSGTSYSLTISSMEAEDAATYYCQQRSSFPLTFGAGTKLELKR
In the case of B2, the “cytotoxic activity of unconjugated antibody” value in the data set with WISH cells [6] is “no cytotoxic activity”.

B3: huDS6v1.01-DM4 (conjugate)
VH: QAQLVQSGAEVVKPGASVKMSCKASGYTFTSYNMHWVKQTPGQGLEWIGYIYPGNGATNYNQKFQGKATLTADTSSSTAYMQISSLTSEDSAVYFCARGDSVPFAYWGQGTLVTVSA
VL: EIVLTQSPATMSASPGERVTITCSAHSSVSFMHWFQQKPGTSPKLWIYSTSSLASGVPARFGGSGSGTSYSLTISSMEAEDAATYYCQQRSSFPLTFGAGTKLELKR
For B3, the “toxicity / body weight” value in the data set on HPAC xenografts (200 μg/kg DM4) is “lack of body weight loss; also recorded: not toxic”. For the same molecule, the anti-tumor activity entry in the data set on HPAC xenografts (200 μg/kg DM4, treatment on day 13) is reported as “all mice achieving complete tumor regression; also recorded: potent anti-tumor activity”. For the same molecule, the “effect of conjugation on affinity/avidity” value with KB cells [7] is reported as “essentially no loss of affinity; also recorded: little effect on the avidity”.

B4: cantuzumab mertansine: huC242-DM1 antibody-maytansinoid conjugate tested in a clinical trial (conjugate, chains of the INN, looked up)
VH: QVQLVQSGAEVKKPGETVKISCKASDYTFTYYGMNWVKQAPGQGLKWMGWIDTTTGEPTYAQKFQGRIAFSLETSASTAYLQIKSLKSEDTATYFCARRGPYNWYFDVWGQGTTVTVSS
VL: DIVMTQSPLSVPVTPGEPVSISCRSSKSLLHSNGNTYLYWFLQRPGQSPQLLIYRMSNLVSGVPDRFSGSGSGTAFTLRISRVEAEDVGVYYCLQHLEYPFTFGPGTKLELK
modifications: DM1 maytansinoid conjugate
notes: huC242-DM1 antibody-maytansinoid conjugate tested in a clinical trial
For B4, the “correlation of pretreatment shed CanAg levels with pharmacokinetics of antibody clearance” value in data set [8] is reported as “no correlation”.
